These results are taken from patent publication US7772245B2, “Inhibitors of histone deacetylase” (Miikana Therapeutics, Inc., priority 2005, dated 2010).

One test has as its system HDAC. The test is described as follows: In vitro fluorescent histone deacetylase assay (Biomol HDAC fluorescent activity kit, HeLa cell nuclear extract). Type of test: biochemical. The conditions noted are these: 100 μM compound; HeLa cell nuclear extract as source of HDAC activity; 50 μM substrate, 10 min at room temperature. The protocol:
Histone deacetylase (HDAC) activity assays were performed using the HDAC fluorescent activity assay/drug discovery kit (Biomol Research Laboratories, Plymouth Meeting, Pa.) essentially according to the manufacturer's instructions. The included HeLa cell nuclear extract, which contains a mosaic of HDAC enzymes and other nuclear factors, was used as the source of HDAC activity. The final substrate concentration in the assay mixture was 50 μM. The reaction was allowed to proceed for 10 min at room temperature before stopping the reaction. Test compounds were prepared as 20 mM stock solutions in DMSO (Molecular Biology grade, Sigma-Aldrich Co., St. Louis, Mo.) and stored at −70° C. Serial dilutions of test compounds were prepared in assay buffer immediately prior to testing. DMSO was determined in a separate trial to have no significant effect on the activity of this assay at concentrations up to 5%; the final DMSO concentration in the wells was no more than 2% and therefore DMSO effects were safely neglected. Assays were performed in white polystyrene 96-well half-area assay plates (Corning, Corning, N.Y.) and measured on a Wallace 1420 fluorescent plate reader (Wallac Oy, Turku, Finland) with an excitation wavelength of 355 nm, an emission wavelength of 460 nm, and a 1 sec signal averaging time.

A further test concerns HCT116 cells. In words: Whole cell cytotoxicity assay: Sulforhodamine B. It counts as cell-based. The conditions noted are these: Homo sapiens, HCT-116; 100 μM compound; 48 hours incubation with drug; Sulforhodamine B staining; read-out: % Inhibition of HCT116 cell growth @ 100 μM. The protocol:
[The source words this procedure for another cell line and reports this cell line under the same test.] The following procedure can be found on the Developmental Therapeutics Program NCl/NIH web site at http://dtp.nci.nih.gov/brancehes/btb/ivclsp.html. • 1. Human tumor cell lines of HT29, A549 and MCF7 are grown in DMEM containing 10% fetal bovine serum and 2 mM L-glutamine. Cells are plated in a 96 well plate at a density of 5000 cells per well in 100 μL of growth medium and incubated at 37° C., 5% CO2, for 24 hours prior to the addition of experimental compounds. • 2. Experimental drugs are solubilized in DMSO for a final concentration of 20 mM immediately prior to use. Drugs are further diluted in growth media for a total of nine drug concentrations and a growth control. At the 24 hour time point, one plate of cells is fixed in situ with TCA as a measurement of the cell population at time zero, or the time of drug addition. • 3. The plates are further incubated with drug for an additional 48 hours. • 4. The cells are fixed in situ by gently aspirating off the culture media and then adding 50 μL of ice cold 10% TCA per well and incubated at 4° C. for 60 minutes. The plates are washed with tap water five times and allowed to air dry for 5 minute. • 5. 50 μL of a 0.4% (w/v) Sulforhodamine B solution in 1% (v/v) acetic acid is added per well and incubated for 30 minutes at room temperature. • 6. Following staining, plates are washed five times with 1% acetic acid to remove any unbound dye and then allowed to air dry for 5 minutes. • 7. Stain is solubilized with 100 μL of 10 mM Tris pH 10.5 per well and placed on an orbital rotator for 5 minutes. • 8. Absorbance is read at 570 nm.
On the technique in general: Sulforhodamine B stains cellular protein and so reports cell mass.

For orientation: inhibition means the drop in the measured response relative to a control, in per cent. Turning to `CSc1cccc(-c2ccc3[nH]c4c(c3c2)CN(c2ncc(C(=O)NO)cn2)CC4)c1` [Example 49, N-hydroxy-2-{8-[3-(methylthio)phenyl]-1,3,4,5-tetrahydro-2H-pyrido[4,3-b]indol-2-yl}pyrimidine-5-carboxamide], the “% Inhibition of HDAC @ 100 μM” value in the test with HDAC is 99.9%. For the same compound, the inhibition at 100 µM in the test with HCT116 cells came out at 99.3%.

Turning to `CC(=O)Nc1ccc(-c2ccc3[nH]c4c(c3c2)CN(c2ncc(C(=O)NO)cn2)CC4)cc1` [Example 50, N-hydroxy-2-{8-[4-(N-acetamido)phenyl]-1,3,4,5-tetrahydro-2H-pyrido[4,3-b]indol-2-yl}pyrimidine-5-carboxamide], the “% Inhibition of HDAC @ 100 μM” value in the test with HDAC came to 99.7%. In the test with HCT116 cells, the inhibition at 100 µM is 89.1%.

For `O=C(NO)c1cnc(N2CCc3[nH]c4ccc(-c5cncnc5)cc4c3C2)nc1` [Example 51, N-hydroxy-2-{8-(pyrimidin-5-yl)-1,3,4,5-tetrahydro-2H-pyrido[4,3-b]indol-2-yl}pyrimidine-5-carboxamide], the “% Inhibition of HDAC @ 100 μM” value in the test with HDAC was found to be 99.8%. Besides, the inhibition at 100 µM in the test on HCT116 cells is 98.7%.

For the compound `O=C(NO)c1cnc(N2CCc3[nH]c4ccc(-c5ccoc5)cc4c3C2)nc1` [Example 52, N-hydroxy-2-{8-[fur-3-yl]-1,3,4,5-tetrahydro-2H-pyrido[4,3-b]indol-2-yl}pyrimidine-5-carboxamide], the “% Inhibition of HDAC @ 100 μM” value in the test with HDAC stood at 99.7%. The inhibition at 100 µM in the test on HCT116 cells worked out at 98.9%.

On to `O=C(NO)c1cnc(N2CCc3[nH]c4ccc(-c5ccc[nH]5)cc4c3C2)nc1` [Example 53, N-hydroxy-2-{8-[1H-pyrrol-2-yl]-1,3,4,5-tetrahydro-2H-pyrido[4,3-b]indol-2-yl}pyrimidine-5-carboxamide], for which the “% Inhibition of HDAC @ 100 μM” value in the test on HDAC is 100%. Besides, in the test with HCT116 cells, the inhibition at 100 µM came to 96.4%.

For the compound `Cc1ccc2[nH]c3c(c2c1Cl)CN(c1ncc(C(=O)NO)cn1)CC3` [Example 54, N-hydroxy-2-(9-chloro-8-methyl-1,3,4,5-tetrahydro-2H-pyrido[4,3-b]indol-2-yl)pyrimidine-5-carboxamide], the “% Inhibition of HDAC @ 100 μM” value with HDAC is 99.5%. The inhibition at 100 µM in the test with HCT116 cells is 98.9%.

`O=C(NO)c1cnc(N2CCc3[nH]c4ccc(C(F)(F)F)cc4c3C2)nc1` [Example 55, N-hydroxy-2-(8-trifluoromethyl-1,3,4,5-tetrahydro-2H-pyrido[4,3-b]indol-2-yl)pyrimidine-5-carboxamide]: in the test with HDAC, the “% Inhibition of HDAC @ 100 μM” value is 99.3%. Moreover, the inhibition at 100 µM with HCT116 cells is 99.1%.

As for `Cc1cc2[nH]c3c(c2cc1C)CN(c1ncc(C(=O)NO)cn1)CC3` [Example 56, N-hydroxy-2-(7,8-dimethyl-1,3,4,5-tetrahydro-2H-pyrido[4,3-b]indol-2-yl)pyrimidine-5-carboxamide], the “% Inhibition of HDAC @ 100 μM” value with HDAC came to 99.8%. The inhibition at 100 µM with HCT116 cells worked out at 99%.

For `COc1ccc2[nH]c3c(c2c1)CN(c1ncc(C(=O)NO)cn1)CC3` [Example 57, N-hydroxy-2-(8-methoxy-1,3,4,5-tetrahydro-2H-pyrido[4,3-b]indol-2-yl)pyrimidine-5-carboxamide], in the test on HDAC, the “% Inhibition of HDAC @ 100 μM” value was found to be 99.9%. Moreover, in the test on HCT116 cells, the inhibition at 100 µM was 98.2%.

On to `O=C(NO)c1cnc(N2CCc3c(n(CCO)c4ccccc34)C2)nc1` [Example 58, N-hydroxy-2-[9-(2-hydroxyethyl)-1,3,4,9-tetrahydro-2H-b-carbolin-2-yl]pyrimidine-5-carboxamide], for which the “% Inhibition of HDAC @ 100 μM” value with HDAC worked out at 97.7%. The inhibition at 100 µM in the test on HCT116 cells is 96.3%.

In the case of `CN1CCCC(n2c3c(c4ccccc42)CCN(c2ncc(C(=O)NO)cn2)C3)C1` (stereo not shown) [Example 59, N-hydroxy-2-[9-(1-methylpiperidin-3-yl)-1,3,4,9-tetrahydro-2H-b-carbolin-2-yl]pyrimidine-5-carboxamide], in the test on HDAC, the “% Inhibition of HDAC @ 100 μM” value is on record as 97.3%. Further, the inhibition at 100 µM in the test with HCT116 cells was 97.5%.

Take `O=C(NO)c1cnc(N2CCc3[nH]c4ccc(-c5cccs5)cc4c3C2)nc1` [Example 60, N-hydroxy-2-{8-[thien-2-yl]-1,3,4,5-tetrahydro-2H-pyrido[4,3-b]indol-2-yl}pyrimidine-5-carboxamide]: in the test on HDAC, the “% Inhibition of HDAC @ 100 μM” value stood at 100%. Besides, the inhibition at 100 µM in the test on HCT116 cells was 99%.

With `Cc1cccc2c3c([nH]c12)CN(c1ncc(C(=O)NO)cn1)CC3` [Example 61, N-hydroxy-2-(8-methyl-1,3,4,9-tetrahydro-2H-b-carbolin-2-yl)pyrimidine-5-carboxamide], the “% Inhibition of HDAC @ 100 μM” value in the test on HDAC came out at 99.9%. The inhibition at 100 µM with HCT116 cells was 98.2%.

With `O=C(NO)c1cnc(N2CCc3c([nH]c4cc(F)ccc34)C2)nc1` [Example 62, N-hydroxy-2-(7-fluoro-1,3,4,9-tetrahydro-2H-b-carbolin-2-yl)pyrimidine-5-carboxamide], the “% Inhibition of HDAC @ 100 μM” value with HDAC was 99.9%. Besides, the inhibition at 100 µM in the test with HCT116 cells came out at 96.2%.

As for `O=C(NO)c1cnc(N2CCc3c([nH]c4ccc(F)cc34)C2)nc1` [Example 63, N-hydroxy-2-(6-fluoro-1,3,4,9-tetrahydro-2H-b-carbolin-2-yl)pyrimidine-5-carboxamide], in the test with HDAC, the “% Inhibition of HDAC @ 100 μM” value was found to be 99.8%. Also, the inhibition at 100 µM with HCT116 cells is 98.9%.

`O=C(NO)c1cnc(N2CCc3c([nH]c4ccc(OCc5ccccc5)cc34)C2)nc1` [Example 64, N-hydroxy-2-(6-benzyloxy-1,3,4,9-tetrahydro-2H-b-carbolin-2-yl)pyrimidine-5-carboxamide]: the “% Inhibition of HDAC @ 100 μM” value in the test on HDAC was found to be 99.9%. For the same compound, in the test with HCT116 cells, the inhibition at 100 µM amounted to 98.7%.

For `Cc1ccc2c3c([nH]c2c1)CN(c1ncc(C(=O)NO)cn1)CC3` [Example 65, N-hydroxy-2-(7-methyl-1,3,4,9-tetrahydro-2H-b-carbolin-2-yl)pyrimidine-5-carboxamide], the “% Inhibition of HDAC @ 100 μM” value in the test with HDAC stood at 99.8%. For the same compound, the inhibition at 100 µM in the test on HCT116 cells worked out at 98.4%.

As for `Cc1ccc2c(c1)C1CCN(c3ncc(C(=O)NO)cn3)CC1N2` (stereo not shown) [Example 67, N-hydroxy-2-(6-methyl-1,3,4,4a,9,9a-hexahydro-2H-b-carbolin-2-yl)pyrimidine-5-carboxamide], in the test with HDAC, the “% Inhibition of HDAC @ 100 μM” value is given as 99.9%. In addition, the inhibition at 100 µM in the test with HCT116 cells turned out to be 98.2%.

With `Cc1ccc2[nH]c3c(c2c1)CCN(c1ncc(C(=O)NO)cn1)C3` [Example 68, N-hydroxy-2-(6-methyl-1,3,4,9-tetrahydro-2H-b-carbolin-2-yl)pyrimidine-5-carboxamide], in the test on HDAC, the “% Inhibition of HDAC @ 100 μM” value is 99.9%. For the same compound, the inhibition at 100 µM in the test on HCT116 cells was found to be 98.9%.

Turning to `O=C(NO)c1cnc(N2CCc3c([nH]c4ccc(-c5cccc(CN6CCOCC6)c5)cc34)C2)nc1` [Example 70, N-hydroxy-2-{6-[3-(morpholin-4-ylmethyl)phenyl]-1,3,4,9-tetrahydro-2H-b-carbolin-2-yl}pyrimidine-5-carboxamide], the “% Inhibition of HDAC @ 100 μM” value with HDAC was 99.9%. For the same compound, in the test with HCT116 cells, the inhibition at 100 µM was 97.9%.

`CN1CCN(Cc2cccc(-c3ccc4[nH]c5c(c4c3)CCN(c3ncc(C(=O)NO)cn3)C5)c2)CC1` [Example 71, N-hydroxy-2-{6-[3-((4-methylpiperazin-1-yl)methyl)phenyl]-1,3,4,9-tetrahydro-2H-b-carbolin-2-yl}pyrimidine-5-carboxamide]: the “% Inhibition of HDAC @ 100 μM” value in the test with HDAC was 99.9%. For the same compound, the inhibition at 100 µM in the test on HCT116 cells worked out at 98.6%.

Turning to `CN1CCN(Cc2ccc(-c3ccc4[nH]c5c(c4c3)CCN(c3ncc(C(=O)NO)cn3)C5)cc2)CC1` [Example 72, N-hydroxy-2-{6-[4-((4-methylpiperazin-1-yl)methyl)phenyl]-1,3,4,9-tetrahydro-2H-b-carbolin-2-yl}pyrimidine-5-carboxamide], the “% Inhibition of HDAC @ 100 μM” value in the test on HDAC is 99.8%. For the same compound, the inhibition at 100 µM in the test on HCT116 cells is 95.6%.

Turning to `CN1CCN(Cc2ccccc2-c2ccc3[nH]c4c(c3c2)CCN(c2ncc(C(=O)NO)cn2)C4)CC1` [Example 73, N-hydroxy-2-{6-[2-((4-methylpiperazin-1-yl)methyl)phenyl]-1,3,4,9-tetrahydro-2H-b-carbolin-2-yl}pyrimidine-5-carboxamide], the “% Inhibition of HDAC @ 100 μM” value in the test on HDAC stood at 99.6%. Moreover, the inhibition at 100 µM with HCT116 cells was 99.4%.
